Laboratory results as given in PubChem BioAssay (NCI).
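Exposure lasted 48 hours, with cells grown in 96-well plates and compounds tested at five concentrations. TGI denotes the concentration required for complete inhibition of growth.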

What was measured:
Assay in all cases: NCI-60 cell line screen, 48 h
CCRF-CEM leukemia = system: CCRF-CEM leukemia
SF-539 CNS = system: SF-539 CNS
MOLT-4 leukemia = system: MOLT-4 leukemia
A498 renal = system: A498 renal
786-0 renal = system: 786-0 renal
DMS 114 small cell lung = system: DMS 114 small cell lung
OVCAR-8 ovarian = system: OVCAR-8 ovarian
HCT-15 colon = system: HCT-15 colon
MALME-3M melanoma = system: MALME-3M melanoma
SF-268 CNS = system: SF-268 CNS
HOP-92 NSCLC = system: HOP-92 NSCLC
M14 melanoma = system: M14 melanoma
SF-295 CNS = system: SF-295 CNS
A549 NSCLC = system: A549 NSCLC
LXFL 529 NSCLC = system: LXFL 529 NSCLC
HT29 colon = system: HT29 colon
HOP-62 NSCLC = system: HOP-62 NSCLC
EKVX NSCLC = system: EKVX NSCLC
UO-31 renal = system: UO-31 renal
K-562 leukemia = system: K-562 leukemia
SNB-78 CNS = system: SNB-78 CNS
U251 CNS = system: U251 CNS
UACC-257 melanoma = system: UACC-257 melanoma
TK-10 renal = system: TK-10 renal
SK-MEL-2 melanoma = system: SK-MEL-2 melanoma
HCT-116 colon = system: HCT-116 colon
SW-620 colon = system: SW-620 colon
CAKI-1 renal = system: CAKI-1 renal
UACC-62 melanoma = system: UACC-62 melanoma
KM20L2 colon = system: KM20L2 colon
HOP-18 NSCLC = system: HOP-18 NSCLC
DLD-1 colon = system: DLD-1 colon
NCI-H460 lung = system: NCI-H460 lung
NCI-H522 lung = system: NCI-H522 lung
SNB-19 CNS = system: SNB-19 CNS
XF 498 CNS = system: XF 498 CNS
OVCAR-3 ovarian = system: OVCAR-3 ovarian
SR leukemia = system: SR leukemia
KM12 colon = system: KM12 colon
LOX IMVI melanoma = system: LOX IMVI melanoma
DMS 273 small cell lung = system: DMS 273 small cell lung
SK-MEL-28 melanoma = system: SK-MEL-28 melanoma
SK-OV-3 ovarian = system: SK-OV-3 ovarian
OVCAR-5 ovarian = system: OVCAR-5 ovarian
HL-60(TB) leukemia = system: HL-60(TB) leukemia
IGROV1 ovarian = system: IGROV1 ovarian
RPMI-8226 leukemia = system: RPMI-8226 leukemia
SK-MEL-5 melanoma = system: SK-MEL-5 melanoma
M19-MEL melanoma = system: M19-MEL melanoma
NCI-H23 lung = system: NCI-H23 lung
COLO 205 colon = system: COLO 205 colon
ACHN renal = system: ACHN renal
NCI-H226 lung = system: NCI-H226 lung
RXF 393 renal = system: RXF 393 renal
SN12C renal = system: SN12C renal
HCC-2998 colon = system: HCC-2998 colon
SNB-75 CNS = system: SNB-75 CNS
OVCAR-4 ovarian = system: OVCAR-4 ovarian

`Cc1cc(=O)oc2c(C)c(OCCCOc3ccc4c(C)cc(=O)oc4c3C)ccc12` was tested, and the TGI (CCRF-CEM leukemia) was over 100 µM, the TGI (SF-539 CNS) was over 100 µM and the TGI (MOLT-4 leukemia) was over 100 µM. The TGI (A498 renal) was over 100 µM, the TGI (786-0 renal) was over 100 µM and the TGI (DMS 114 small cell lung) was over 100 µM. For the same molecule, the TGI (OVCAR-8 ovarian) was over 100 µM, the TGI (HCT-15 colon) was over 100 µM and the TGI (MALME-3M melanoma) was over 100 µM. The TGI (SF-268 CNS) was over 100 µM, the TGI (HOP-92 NSCLC) was over 100 µM and the TGI (M14 melanoma) was over 100 µM. The TGI (SF-295 CNS) was over 100 µM, the TGI (A549 NSCLC) was over 100 µM and the TGI (LXFL 529 NSCLC) was over 100 µM. It also gave a TGI (HT29 colon) of over 100 µM, a TGI (HOP-62 NSCLC) of over 100 µM and a TGI (EKVX NSCLC) of over 100 µM. For the same molecule, the TGI (UO-31 renal) was over 100 µM, the TGI (K-562 leukemia) was over 100 µM and the TGI (SNB-78 CNS) was over 100 µM. It also gave a TGI (U251 CNS) of over 100 µM, a TGI (UACC-257 melanoma) of over 100 µM and a TGI (TK-10 renal) of over 100 µM. For the same molecule, the TGI (SK-MEL-2 melanoma) was over 100 µM, the TGI (HCT-116 colon) was over 100 µM and the TGI (SW-620 colon) was over 100 µM. For the same molecule, the TGI (CAKI-1 renal) was over 100 µM, the TGI (UACC-62 melanoma) was over 100 µM and the TGI (KM20L2 colon) was over 100 µM. For the same molecule, the TGI (HOP-18 NSCLC) was over 100 µM, the TGI (DLD-1 colon) was over 100 µM and the TGI (NCI-H460 lung) was over 100 µM. It also gave a TGI (NCI-H522 lung) of over 100 µM, a TGI (SNB-19 CNS) of over 100 µM and a TGI (XF 498 CNS) of over 100 µM. It also gave a TGI (OVCAR-3 ovarian) of over 100 µM, a TGI (SR leukemia) of over 100 µM and a TGI (KM12 colon) of over 100 µM. The TGI (LOX IMVI melanoma) was over 100 µM, the TGI (DMS 273 small cell lung) was over 100 µM and the TGI (SK-MEL-28 melanoma) was over 100 µM. The TGI (SK-OV-3 ovarian) was over 100 µM, the TGI (OVCAR-5 ovarian) was over 100 µM and the TGI (HL-60(TB) leukemia) was over 100 µM. It also gave a TGI (IGROV1 ovarian) of over 100 µM, a TGI (RPMI-8226 leukemia) of over 100 µM and a TGI (SK-MEL-5 melanoma) of over 100 µM. The TGI (M19-MEL melanoma) was over 100 µM and the TGI (NCI-H23 lung) was over 100 µM.

`O=C(Nc1cccc(O)c1)C(=O)C(C(=O)c1ccc(Cl)c(Cl)c1)C1OC(=O)c2ccccc21` (centres undefined) was tested, and the TGI (COLO 205 colon) was 30.7 µM, the TGI (CCRF-CEM leukemia) was 55.5 µM and the TGI (ACHN renal) was 29.7 µM. It also gave a TGI (MOLT-4 leukemia) of 29.2 µM, a TGI (A498 renal) of 41.9 µM and a TGI (NCI-H226 lung) of 21.9 µM. The TGI (RXF 393 renal) was 37.2 µM, the TGI (786-0 renal) was 26.4 µM and the TGI (DMS 114 small cell lung) was 33.3 µM. The TGI (OVCAR-8 ovarian) was 37.8 µM, the TGI (HCT-15 colon) was 35 µM and the TGI (MALME-3M melanoma) was 33.8 µM. It also gave a TGI (SF-268 CNS) of 33.7 µM, a TGI (HOP-92 NSCLC) of 53.8 µM and a TGI (M14 melanoma) of 37.1 µM. The TGI (SF-295 CNS) was 62.6 µM, the TGI (A549 NSCLC) was over 100 µM and the TGI (LXFL 529 NSCLC) was 24.6 µM. The TGI (HT29 colon) was 68.4 µM, the TGI (EKVX NSCLC) was 46.6 µM and the TGI (UO-31 renal) was 27.1 µM. It also gave a TGI (K-562 leukemia) of 48.9 µM, a TGI (SNB-78 CNS) of over 100 µM and a TGI (U251 CNS) of 21.3 µM. The TGI (UACC-257 melanoma) was 55.6 µM, the TGI (TK-10 renal) was 60.3 µM and the TGI (SK-MEL-2 melanoma) was 63.9 µM. It also gave a TGI (HCT-116 colon) of 48.2 µM, a TGI (SW-620 colon) of 29 µM and a TGI (CAKI-1 renal) of 75 µM. The TGI (UACC-62 melanoma) was 31.8 µM, the TGI (KM20L2 colon) was 37.3 µM and the TGI (HOP-18 NSCLC) was over 100 µM. For the same molecule, the TGI (SN12C renal) was 38.4 µM, the TGI (NCI-H460 lung) was 27.5 µM and the TGI (NCI-H522 lung) was 21.8 µM. It also gave a TGI (SNB-19 CNS) of 37.8 µM, a TGI (XF 498 CNS) of 25.6 µM and a TGI (HCC-2998 colon) of 29.2 µM. The TGI (SR leukemia) was 26.6 µM, the TGI (KM12 colon) was 41.4 µM and the TGI (LOX IMVI melanoma) was 33.8 µM. It also gave a TGI (DMS 273 small cell lung) of 39.5 µM, a TGI (SK-MEL-28 melanoma) of 40.6 µM and a TGI (SK-OV-3 ovarian) of 51.1 µM. For the same molecule, the TGI (OVCAR-5 ovarian) was 65.2 µM, the TGI (HL-60(TB) leukemia) was 36.5 µM and the TGI (IGROV1 ovarian) was 56.5 µM. The TGI (RPMI-8226 leukemia) was 54.5 µM, the TGI (SK-MEL-5 melanoma) was 37.6 µM and the TGI (SNB-75 CNS) was 71.4 µM. It also gave a TGI (OVCAR-4 ovarian) of 36.7 µM, a TGI (M19-MEL melanoma) of 27.1 µM and a TGI (NCI-H23 lung) of 32.6 µM.
